Data on two substances can be found in patent US12128062B2, “Methods for targeting pain directed at metabolic pathways” (UNIVERSITY OF MARYLAND, BALTIMORE, priority 2018, dated 2024).

For data set [1], the system named is L4-6 DRG cultures (sensory neurons). Put plainly: Extracellular flux analysis (Seahorse XFp): glutamine oxidation-dependent oxygen consumption rate of dissociated L4-6 DRG cultures from IT-treated mice. Format: cell-based, mouse. To be noted: glutamine 2 mM; for increase in oxygen consumption rate (OCR) in response to glutamine addition: DRG cultures from mice given 1 μg IT one day earlier, baseline OCR subtracted; for time over which the glutamine-induced OCR increase lasts: DRG cultures from mice given 1 μg IT. On the procedure: (§1) In this experiment, mice were injected with 1 μg of teRNA or teRNAmm intrathecally (IT). The next day L4-6 DRGs were dissected and acutely dissociated for extracellular flux analysis. One day post teRNA and teRNA mm injection L4-6 DRGs were dissected and proteins were extracted for western blot analysis. In an independent experiment, mice received plantar incision and were allowed to recover. On day 10 baseline measurements were performed, which was followed by intraplantar injection of PGE2. Allodynia testing was preformed form on days 14, 15, 21 and 24. Intrathecal teRNA or teRNAmm (1 μg) were injected on day 14 following the allodynia testing.
In this experiment, L4-6 DRGs were dissected form naïve, teRNAmm and teRNA treated mice. Lumbar 4-6 DRGs were placed in Hank's Buffered Salt Solution (HBSS, Thermo Fisher, Cat #14170112) on ice. The ganglia were dissociated enzymatically with collagenase A (1 mg/ml, 25 min, Millipore Sigma, Cat #10103578001) and collagenase D (1 mg/ml, Millipore Sigma, Cat #11088858001) with papain (30 U/ml, Millipore Sigma, Cat #10108014001) for 20 min at 37° C. To eliminate debris and large diameter sensory neurons, 70 μm (Thermo Fisher, Cat #087712) cell strainers were used. The dissociated cells were resuspended in DMEM/F12 (Thermo Fisher, Cat #10565042) containing 1× pen-strep (Thermo Fisher, Cat #15070063) and 10% fetal bovine serum (Millipore Sigma, Cat #F2442). The cells were plated in Seahorse XFp Cell Culture Miniplate (Agilent, Cat #103025-100). These cultures were incubated overnight at 37° C. in a humidified 95% air/5% CO2 incubator. The metabolic changes were characterized by analyzing the glycolysis and oxidative phosphorylation rates of sensory neurons using extracellular flux analyzer, Seahorse XFp (Agilent). Dissociated L4-6 primary afferents were incubated in DMEM (Millipore Sigma, Cat #D5030) without glutamine, pyruvate or glucose, Baseline oxygen consumption rate (OCR) measurements were followed by the addition of glutamine (2 mM). The baseline OCR values were subtracted from each of the other values to determine glutamine oxidation-dependent OCR.

Data set [2] can be described thus: Hyperalgesic priming model (plantar incision then intraplantar PGE2), tactile thresholds by von Frey filaments. Format: in vivo, mouse.
Description: The hyperalgesic priming model was utilized in the experiments because it is well-characterized and used to study the neuroplasticity underlying persistent pain sensitization and the transition of acute pain to chronic pain [13-17]. As shown at the top FIG. 2, the model is comprised of three phases. 1) The acute phase, also called the induction phase, causes transient tactile hypersensitivity in response to various pro-nociceptive compounds and resolves within a week. The hindpaw plantar incision model was used for the acute phase, which comprises incision of the skin, the underlying fascia, and the plantar flexor digitorum brevis muscle as the initial injury. This model was selected since it lacks injury to major peripheral nerves and typically resolves within a week. 2) The primed phase follows the acute phase. The animals are not hypersensitive and this phase can last for at least 3 weeks.
In this experiment, mice received plantar incision and their tactile thresholds were determined using von Frey filaments. Mice were placed in small cages with a mesh floor individually. Calibrated monofilaments of differing forces are applied perpendicularly to the hind paw. Withdraws, licking or flinching of the paw in response to the filament is considered a positive response. The results are provided in FIG. 2A where “Threshold (grams)” on the y-axis represents the amount of force required for the mice to withdraw the hindpaw before (baseline, BL) and after the incision. Reduced withdrawal threshold indicates increased pain.
In this experiment, the same mice used in the acute phase were allowed to recover and on Day 10 received intraplantar PGE2. The results are provided in FIG. 2B where “Threshold (grams)” on the y-axis represents the amount of force required for the mice to withdraw their hindpaw which is an indication of tactile hypersensitivity and pain. […] 1, 2, 3 and 4 days post-PGE2 injection, *** P<0.001. […] PGE2 injection caused profound allodynia in mice that had plantar incision.
as §1, with “testing. […]” for “testing.”

Data set [3] is described as follows: Bortezomib-induced CIPN (neuropathic pain) mouse model, tactile thresholds / allodynia. Format: in vivo. On the procedure: teRNA was administered to mice which have developed neuropathic pain due to bortezomib treatment. In this experiment, mice were treated with intraperitoneal 0.2 mg/kg of bortezomib (Millipore Sigma, Cat #5.04314.0001) for 5 consecutive days for a total dose of 1 mg/kg. The vehicle group received intraperitoneal saline for 5 consecutive days. The mice that receive bortezomib develop profound allodynia. The efficacy of teRNA for treating and preventing the development of bortezomib-induced neuropathic pain was explored.
Treatment with bortezomib (bort) from day 0-4 (black arrow) led to the development of severe neuropathic pain. Baseline thresholds were measured on day 0 and allodynia was tested on days 14, 15, 17 and 21.
In a second experiment, mice were treated with either saline or bortezomib on days 0-4 (intraperitoneal 0.2 mg/kg of bortezomib for 5 consecutive days for a total dose of 1 mg/kg). On day 7 mice that received bortezomib developed profound neuropathic pain.
To determine if teRNA can prevent the development of chemotherapy-induced neuropathic pain, mice were co-treated with IT teRNA (days 0, 2 and 4) and intraperitoneal (IP) bortezomib (days 0-4) (intraperitoneal 0.2 mg/kg of bortezomib for 5 consecutive days for a total dose of 1 mg/kg).

A further data set deals with ASCT2. Put plainly: Western blot of ASCT2 protein in L4-6 DRGs after intrathecal injection. As to conditions: IT 1 μg, DRGs dissected 24 hrs post injection; versus teRNAmm control. In kind it is in vivo, mouse. On the procedure:
Western blot (WB) analyses were performed to examine changes in metabolic genes that are known to regulate pyruvate and glutamine oxidation. In these experiments, lumbar 4-6 dorsal root ganglia (L4-6 DRGs) which innervate the hindpaw were dissected on Day 1, 9 and 14 post-plantar incisions (as described above). Protein was extracted from the L4-6 DRGs in lysis buffer (50 mM Tris HCl, 1% Triton X-100, 150 mM NaCl, and 1 mM EDTA at pH 7.4) containing protease and phosphatase inhibitor mixtures with an ultrasonicator on ice, and cleared of cellular debris by centrifugation at 14,000 relative centrifugal force for 15 min at 4° C. Fifteen micrograms of protein per well were loaded and separated by standard 7.5% or 10% SDS-PAGE. Proteins were transferred to Immobilon-P membranes (Millipore Sigma, Cat #IPVH00010) and then blocked with 5% dry milk for 3 h at room temperature. The blots were incubated with primary antibody overnight at 4° C. and detected the following day with donkey anti-rabbit or goat anti-mouse antibody conjugated to horseradish peroxidase (1:10,000, Jackson Immunoresearch, Cat #711-036-152, Cat #115-036-062). Signal was detected by enhanced chemiluminescence on films. For assessment of phospho-proteins, membranes were stripped and reprobed for total-protein of interest for normalization. Densitometric analyses were done using UN-SCAN-IT 7.1 software (Silk Scientific Corp.). […]
In general terms: Immunoblotting shows a protein as a band on a membrane.

Where [4] appears, read: single IT 1 μg, 14 days post plantar incision (4 days post PGE2).
The mark [5] stands for this setting: IT 1 μg on days 7, 9 and 11, bortezomib IP 0.2 mg/kg days 0-4.
Setting [6] is: single IT 1 μg on day 14, bortezomib IP 0.2 mg/kg days 0-4.

Turning to “5′-CAUACUACGCCGUAGC-3′ (2'-O-methyl modifications, further chemistry not given here) [teRNAmm, reference compound]”, in data set [1], the “increase in oxygen consumption rate (OCR) in response to glutamine addition” value is recorded as 10% and the “time over which the glutamine-induced OCR increase lasts” value is ≤ 30 min. For the same substance, in data set [2] (setting [4]), the “effect on tactile hypersensitivity / tactile thresholds, incision group” value was “did not display any change in their tactile thresholds”. Moreover, the “effect on existing bortezomib-induced neuropathic pain, repeated treatment” value in data set [3] (setting [5]) is on record as “did not impact the bortezomib-induced neuropathic pain”. Further, the “effect on bortezomib-induced neuropathic pain / tactile thresholds, single treatment” value in data set [3] (setting [6]) is “did not impact the tactile thresholds”.
Turning to “5′-CAUAGAUCCGGGAUGC-3′ (2'-O-methyl modifications, further chemistry not given here) [teRNA]”, in data set [1], the “increase in oxygen consumption rate (OCR) in response to glutamine addition” value is given as “around 20%” and the “time over which the glutamine-induced OCR increase lasts” value is listed as “at least 30 mins”. The “ASCT2 protein in L4-6 DRGs” value with ASCT2 is on record as “robust increase”. Moreover, the “effect on tactile thresholds of the control group (no incision)” value in data set [2] (single IT 1 μg on day 14) is on record as “did not affect the tactile thresholds”. In addition, in data set [2] (setting [4]), the “duration of alleviation of tactile hypersensitivity, incision group” value is reported as “at least 7 days” and the “effect on tactile hypersensitivity / tactile thresholds, incision group” value is recorded as “alleviated tactile hypersensitivity”. Moreover, in data set [3] (setting [5]), the “duration of pain relief, repeated treatment” value is listed as “at least 2 weeks” and the “effect on existing bortezomib-induced neuropathic pain, repeated treatment” value is listed as “prolonged pain relief”. In data set [3] (IT on days 0, 2 and 4 with IP bortezomib 0.2 mg/kg days 0-4), the “prevention of development of bortezomib-induced neuropathic pain, co-treatment” value was “prevented the development of bortezomib-induced neuropathic pain”. For the same substance, the “time post the initiation of bortezomib treatment up to which existing neuropathic pain was alleviated” value in data set [3] (IT on days 7, 9 and 11, bortezomib days 0-4) is reported as “at least 21 days”. In addition, in data set [3] (setting [6]), the “duration of alleviation of bortezomib-induced neuropathic pain, single treatment” value is listed as “several days” and the “effect on bortezomib-induced neuropathic pain / tactile thresholds, single treatment” value was “reversed the bortezomib-induced neuropathic pain”.
